Experimental data from patent US20060040253A1, “Use of Smad3 inhibitor in the treatment of fibrosis dependent on epithelial to mesenchymal transition as in the eye and kidney” (priority 2003, published 2006).

How the values were obtained:
[1] = system: α-TN4; assay: Snail up-regulation in α-TN4 lens epithelial cell line after TGF-β addition; assay type: cell-based, mouse; details: prior to up-regulation of αSMA
[2] = system: ARPE-19 cells; assay: Production of PDGF, TGF-β1 and collagen type I in ARPE-19 cells treated with TGF-β2; assay type: cell-based, human; details: for amount of type I collagen in culture medium and cell lysate (ELISA): 48 hr
Method: Expression of PDGF-BB in ARPE-19 cells was assessed by western blot of cell lysates using PDGF-B (H-55, Santa Cruz Biotechnology, Inc.). Enzyme-linked immunosorbent assays (ELISAs) for PDGF-BB, PDGF-AB and TGF-β1 (R & D Systems, Inc., Minneapolis, Minn.) were used to determine the concentration of each peptide in the culture medium. ARPE-19 cells were grown in 6-well plates to near confluence and then cultured in 500 μl of serum-free DMEM/F-12 supplemented with antibiotics in the presence or absence of human recombinant TGF-β2 (1.0 ng/ml R & D Systems, Inc., Minneapolis, Minn.) for 48 or 96 hrs. Nine wells were prepared for each culture condition. Medium was processed for ELISAs for determination of the concentration of PDGF-BB and -AB according to the manufacturers' protocols. Medium (48 hr) was also processed for the determination of TGF-β1 by an ELISA kit (R & D Systems, Minneapolis, Minn.). Type I collagen was quantified in medium and sonicated cell lysates (48 hr) and processed for an ELISA system for type I collagen C-terminal peptide (PIP ELISA kit, Takara, Tokyo, Japan). Confluent cells grown on a chamber slides (Nunc) were immunostained for collagen type I (1:100 dilution in PBS, Southern Biotechnology).

[3] = system: renal tubular epithelial cells; assay: TGF-β1-induced EMT and autoinduction in primary culture of renal tubular epithelial cells; assay type: cell-based, mouse; details: wild-type cells, TGF-β1 10 ng/ml
Method: Minced kidneys were washed with 3 changes of cold PBS containing 1 mM EDTA and digested in 0.25% trypsin solution (Gibco BRL, Grand Island, N.Y.) in a shaking incubator at 37° C. for 2 h. Trypsin was neutralized with growth medium (DMEM/10% FBS containing 100 unit/ml penicillin and 0.1 mg/ml streptomycin). The suspension was triturated by pipetting and passed through a 100 μm cell strainer (Becton Dickinson Labware, Franklin Lakes, N.J.). The filtrate consisting mostly of dispersed renal tubules was plated onto culture dishes (Nalge Nunc International, Naperville, Ill.) and 2-well chamber slides (Nunc Lab-Tek II-CC2, Nalge Nunc International), and incubated at 37° C. in a CO2 incubator with medium changes every 2 days. Experiments were carried out in serum-free DMEM. EMT was induced by an addition of 10 ng/ml TGF-β1 (R&D Systems, Minneapolis, Minn.). Mouse monoclonal anti-TGF-β neutralizing antibody (clone: 1D11, R & D Systems) was used at a concentration of 20 μg/ml with mouse IgG (Sigma, St Louis, Mo.) as a control.
Histological sections were prepared from tissues fixed in 4% paraformaldehyde in 0.1 M phosphate buffer, pH 7.4, and embedded in paraffin. Cryosections and bottom sheets of BioFlex were fixed in cold acetone and subjected to indirect immunofluorescence with anti-E-cadherin (clone: DECMA-1, Sigma, St Louis, Mo.), anti-α-SMA (clone: 1A4, NeoMarkers, Fremont, Calif.), anti-mouse type I collagen (Southern Biotechnology, Birmingham, Ala.) and anti-mouse F4/80 antibodies (clone: A3-1, BMA, Augst, Switzerland). As second antibodies, FITC-anti-rat IgG (Sigma), TRITC-anti-mouse IgG (Sigma) or Cy3-anti-goat IgG (Sigma) were used.
Cells and tissues were lysed in buffer containing 1% Nonidet P-40, 25 mM Tris-HCl, pH 7.5, 150 mM NaCl, 10 mM EDTA and 1:50 dilution of a protease inhibitor cocktail (P-2714, Sigma). Proteins were separated by SDS-PAGE, transferred to nitrocellulose membranes, and blocked in 5% skim milk in PBS. After incubation with primary antibodies against E-cadherin (clone: 36, Transduction Laboratories, Lexington, Ky.), α-SMA (clone: 1A4) and actin antibodies (Sc-1616, Santa Cruz Biochemicals, Santa Cruz, Calif.), blots were reacted with POD-conjugated goat anti-mouse IgG secondary antibody (Sigma) and developed with ECL (Amersham Biosciences, Buckingshire, UK).
Total RNA was extracted with TRIzol reagent (Invitrogen, Carlsbad, Calif.). RNA (20 μg/lane), separated in 1% agarose-formaldehyde gels and transferred to Hybond-HX nylon membranes (Amersham). Membranes were hybridized with cDNA probes for mouse Snail and TGF-β1 mRNA labeled with [P^32] dCTP by random primed DNA synthesis using the same primers as above (Rediprime II, Amersham Pharmacia Inc., Piscataway, N.J.). Filters were exposed to X-ray film at −80° C. for 2 to 3 d. […]

[4] = system: primary porcine RPE cells; assay: EMT in primary cultures of porcine RPE cells (αSMA immunostaining); assay type: cell-based; details: TGF-β2 10 ng/ml, 48 hr; not in its absence
Method: Cultures of primary porcine RPE cells were prepared by aspirating RPE layers from a hemi-sectioned pig eye after removing the retina by using a micropipette, and putting the aspirate in a 30-mm diameter collagen-coated plastic culture dish to allow the epithelial cells to outgrow. After reaching confluence, the cells were trypsinized, suspended in Dulbecco's modified Eagle's essential medium (DMEM) supplemented with 10% fetal calf serum, and seeded on fibronectin-coated chamber slides (Falcon, Becton Dickinson, Lincoln Park, N.J.) in the presence and absence of 10 ng/ml of porcine TGF-β2 (R & D systems Inc., Minneapolis, Minn.). At 24 hr culture intervals the cells were fixed and immunostained for αSMA.

[5] = system: RPE cells; assay: Wounding of the RPE cell layer in organ-cultured mouse globes; assay type: cell-based; details: TGF-β2 10 ng/ml, WT posterior segments; KO negative
Method: Both eyes were enucleated immediately after being sacrificed as described above. Anterior eye segment structures (cornea and lens) and retina were carefully removed from the globe. After the RPE cell layer had been wounded by scraping using a silicone needle, the tissue was cultured in Eagle's medium supplemented with 10% fetal calf serum in the presence or absence of human recombinant TGF-β2 at 10 ng/ml for 48 hr. The tissue was fixed and embedded in paraffin as previously described (Example 1).
Sections (5 μm) were deparaffinized and stained with hematoxylin and eosin (HE) alone or with polyclonal antibodies against collagen type VI (1:100 dilution in PBS, Southern Biotechnology, Birmingham, Ala.), rabbit polyclonal anti-lumican antibody (10 μg/ml (Saika, S. et al. 2000 J Biol Chem 275:2607-2612)), mouse monoclonal anti-αSMA antibody (1:100 dilution in PBS, NeoMarker, Fremont, Calif., USA), goat polyclonal anti-PDGF-B antibody (1:200 dilution in PBS, Santa Cruz), mouse monoclonal anti-proliferating cell nuclear antigen (PCNA) antibody (1:100 dilution in PBS, Santa Cruz) or with non-immune IgGs (control). After binding of FITC-labeled secondary antibodies (1:100 dilution in PBS, Cappel ICN, Aurora, Ohio, USA), the specimens were observed under fluorescent microscopy followed by mounted with VectaShield with nuclear DAPI staining. […]

[6] = system: ARPE-19 cells; assay: Proliferation of ARPE-19 cells (MTT assay); assay type: cell-based, human; details: sparse cultures, up to 120 hr; PDGF-BB 5 ng/ml, TGF-β2 1 ng/ml
Method: Effects of adding TGF-β2, PDGF-BB, and/or anti-PDGF-B-neutralizing antibody on proliferation of ARPE-19 cells were assessed using the MTT assay (TACS MTT Cell Proliferation Assay Kit, Trevigen, Gaithersburg, Md., USA) according to manufacturer's instruction. ARPE 19 cells suspended in DMEM/F-12 supplemented with 15% fetal calf serum (2×10^4/100 μl/well) were seeded in 96-well culture plates (8 wells for each condition). After 12 hrs cells were changed to 100 μl serum-free culture medium and cultured for an additional 120 hr supplemented with PDGF-BB (5.0 ng/ml) or TGF-β2 (1.0 ng/ml), with either neutralizing anti-PDGF-B antibody (20 μg/ml) or non-immune IgG (20 μg/ml) as control. At the end of each culture interval, MTT reagent (10 μl) was added to each well and the incubation continued for an additional 5 hr at 37° C. Optical density at 570 nm was measured 4 hr after adding the lysis solution contained in the kit.

[7] = system: ARPE-19 cells; assay: EMT and Smad phosphorylation in ARPE-19 cells; assay type: cell-based, human
Description: (§1) The ARPE-19 human RPE cell line (ATCC # CRL-2302) (Dunn, K. C. et al. 1996 Exp Eye Res 62:155-169) was used to assess effects of […] TGF-β2 on expression of αSMA and Smad3 activation as previously described (EXAMPLE 1). Effect of addition of TGF-β2 on ARPE-19 cell migration was examined by using a model of in vitro closure of a monolayer cell sheet as previously reported (Saika, S. et al. 1995 Graefes Arch Clin Exp Ophthalmol 233:347-353).

[8] = system: lens epithelium; assay: Organ-culture of mouse lenses with TGF-β2; assay type: cell-based; details: TGF-β2 10 ng/ml, not KO
Method: The crystalline lens was carefully removed from enucleated eyes of adult Smad3-KO or WT mice and processed for organ-culture as previously described (Saika, S. et al. 2003 Invest Ophthalmol Vis Sci 44: 2094-2102). Three lenses were used in each culture condition. The lens was incubated in DMEM supplemented with antibiotics in the presence and absence of porcine TGF-β2 (10 ng/ml) with a medium change every 2 days. After 5 or 10 days of culture, the tissue was fixed in 2.0% paraformaldehyde as described above. Paraffin sections were processed for histology and immunohistochemistry.
Sections (5 μm) were deparaffinized and stained with hematoxylin and eosin (HE) alone or with polyclonal antibodies against collagen types I and V (both 1:100 dilution in PBS, Southern Biotechnology, Birmingham, Ala.), rabbit polyclonal anti-lumican antibody (10 μg/ml)(Saika, S. et al. 2000 J Biol Chem 275: 2607-2612), or with a mouse monoclonal anti-αSMA antibody (1:100 dilution in PBS, NeoMarker, Fremont, Calif., USA), rabbit polyclonal antibodies against the TGF-β isoforms as previously reported (Flanders, K. C. et al. 1991 Development 113: 183-191), or with non-immune IgG (control). After binding of labeled secondary antibody and the color reaction with 3,3′-diaminobenzidine, sections were counterstained with methyl green and mounted in balsam. […]

[9] = system: ARPE-19 cells; assay: ARPE-19 cell migration, in vitro closure of a defect in a monolayer cell sheet; assay type: cell-based, human; details: TGF-β2 1.0 ng/ml; 24 hrs for the untreated culture
Description: as §1

## TGF-β
[1]
  earliest time of snail up-regulation after TGF-β addition: 30 min

## TGF-β1: exogenous TGF-β1 (R&D Systems), growth factor used to induce EMT
[2]
  amount of type I collagen in culture medium and cell lysate (ELISA): increase
[3]; 8 h, not in Smad3-null cells
  Snail mRNA (Northern blot): de novo expression of Snail mRNA
[3]; 24 h, vs non-treated wild-type, not in Smad3-null cells
  TGF-β1 mRNA expression (autoinduction): enhanced expression of TGF-β1 mRNA
[3]; 24 h, Smad3-null cells retained epithelial monolayer
  cell morphology (phase-contrast microscopy): spindle-shaped, fibroblastic appearance
[3]; 24 h, not seen in Smad3-null cells
  E-cadherin and α-SMA by dual immunofluorescence: Marked reduction of E-cadherin and de novo expression of α-SMA

## TGF-β2: exogenous TGF-β2 growth factor; porcine or human recombinant depending on experiment
[4]
  αSMA expression: express αSMA
[5]
  αSMA expression in wounded pigment epithelium: expresses αSMA faintly at 24 hr and then clearly at 48 hr
[6]
  growth of the cells (MTT assay): inhibited
[7]; TGF-β2 for 72 hr
  αSMA expression: clusters of αSMA positive cells
[7]; immunofluorescence, no longer detectable at 24 hr
  time of highest level of nuclear translocation of Smad3 after addition of TGF-β2: 1 h
[7]; remained activated up to 48 hrs
  time to phosphorylation of Smads2/3 after TGF-β2 exposure (Western blotting): ≤ 30 min
[8]; 10 days, WT lenses
  lens epithelium morphology and EMT markers (lumican, αSMA, collagen type I): multilayer of cells of a fibroblastic morphology
[8]; day 5, WT lenses
  expression of lumican: up-regulated expression of lumican
[9]
  time to closure of the defect in wounded monolayer: ≤ 12 h
[2]
  amount of type I collagen in culture medium and cell lysate (ELISA): increase
[2]; TGF-β2 1.0 ng/ml
  PDGF-AB production (ELISA): significantly increased
[2]; TGF-β2 1.0 ng/ml, 96 hrs
  concentration of PDGF-BB in culture medium (ELISA): approximately 500 pg/ml
[2]; TGF-β2 1.0 ng/ml, beginning about 48-72 hrs after addition
  PDGF-B protein expression (Western blotting): time-dependent up-regulation
[2]; TGF-β2 1.0 ng/ml, confluent cultures
  PDGF-BB protein secreted into the culture medium, increase above control cultures (ELISA): over 2 fold
[2]; exogenous TGF-β2, 48 hr
  expression of TGF-β1 in medium (ELISA): significant increase

B1: PDGF-BB: exogenous PDGF-BB, a potent mitogen, 5.0 ng/ml (protein, UniProt P01127 82-190, looked up)
Platelet-derived growth …: SLGSLTIAEPAMIAECKTRTEVFEISRRLIDRTNANFLVWPPCVEVQRCSGCCNNRNVQCRPTQVQLRPVQVRKIEIVRKKPIFKKATVTLEDHLACKCETVAAARPVT
modifications: homodimer PDGF-BB
[6]
  growth of the cells (MTT assay): enhanced
